Results published in PubChem BioAssay (NCI).
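96-well plates; 48 h exposure; 5 concentrations. Endpoints by linear interpolation between flanking doses. Not reached: highest tested concentration assigned. GI50 is the concentration that inhibits growth by half. TGI denotes the concentration required for complete inhibition of growth.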

Tests used:
Experiment in all cases: DTP human tumour cell line panel, 48 h
A498 renal = tested on: A498 renal
CCRF-CEM leukemia = tested on: CCRF-CEM leukemia
HCC-2998 colon = tested on: HCC-2998 colon
SK-MEL-5 melanoma = tested on: SK-MEL-5 melanoma
SK-OV-3 ovarian = tested on: SK-OV-3 ovarian
SNB-19 CNS = tested on: SNB-19 CNS
HS 578T breast = tested on: HS 578T breast
IGROV1 ovarian = tested on: IGROV1 ovarian
MDA-MB-231 breast = tested on: MDA-MB-231 breast
MDA-MB-435 = tested on: MDA-MB-435

Cc1cccc(C(C)C)c1NC(=O)CCl
TGI (A498 renal): > 100 µM
TGI (CCRF-CEM leukemia): > 100 µM
TGI (HCC-2998 colon): > 100 µM
TGI (SK-MEL-5 melanoma): > 100 µM
TGI (SK-OV-3 ovarian): > 100 µM
TGI (SNB-19 CNS): > 100 µM

O=C(O)c1cn(C2CC2)c2cc(N3CCNCC3)c(F)cc2c1=O
GI50 (CCRF-CEM leukemia): > 100 µM
TGI (CCRF-CEM leukemia): > 100 µM
GI50 (HCC-2998 colon): 98 µM
TGI (HCC-2998 colon): > 100 µM
GI50 (HS 578T breast): 42.3 µM
TGI (HS 578T breast): > 100 µM
GI50 (IGROV1 ovarian): > 100 µM
TGI (IGROV1 ovarian): > 100 µM
GI50 (MDA-MB-231 breast): > 100 µM
TGI (MDA-MB-231 breast): > 100 µM
GI50 (MDA-MB-435): > 100 µM
TGI (MDA-MB-435): > 100 µM
GI50 (SK-MEL-5 melanoma): > 100 µM
TGI (SK-MEL-5 melanoma): > 100 µM
GI50 (SK-OV-3 ovarian): > 100 µM
TGI (SK-OV-3 ovarian): > 100 µM

CCCC(C)c1c(Cl)nc(Cl)nc1Cl (centres undefined)
TGI (CCRF-CEM leukemia): > 100 µM
TGI (HCC-2998 colon): 29.9 µM
TGI (HS 578T breast): > 100 µM
TGI (IGROV1 ovarian): 36.4 µM
TGI (MDA-MB-231 breast): > 100 µM
TGI (MDA-MB-435): 21 µM
TGI (SK-MEL-5 melanoma): 13.9 µM
TGI (SK-OV-3 ovarian): 43.8 µM
TGI (SNB-19 CNS): 35.6 µM

COc1ccc(-n2cc(-c3cc(OC)c(OC)c(OC)c3)[nH]c2=S)cc1Cl
GI50 (CCRF-CEM leukemia): 0.6 µM
TGI (CCRF-CEM leukemia): > 100 µM
GI50 (HCC-2998 colon): 39.7 µM
TGI (HCC-2998 colon): > 100 µM
GI50 (HS 578T breast): 17.5 µM
TGI (HS 578T breast): 60 µM
GI50 (IGROV1 ovarian): 25.6 µM
TGI (IGROV1 ovarian): > 100 µM
GI50 (MDA-MB-231 breast): 7.7 µM
TGI (MDA-MB-231 breast): 49.8 µM
GI50 (MDA-MB-435): > 100 µM
TGI (MDA-MB-435): > 100 µM
GI50 (SK-MEL-5 melanoma): 27.2 µM
TGI (SK-MEL-5 melanoma): > 100 µM
GI50 (SK-OV-3 ovarian): 17 µM
TGI (SK-OV-3 ovarian): 48.3 µM
GI50 (SNB-19 CNS): 19.5 µM
TGI (SNB-19 CNS): 58.4 µM

O=C(Oc1ccc2c(-c3ccccc3)c(C(=O)Nc3ccc(Cl)cc3)c(=O)oc2c1)c1ccccc1
TGI (CCRF-CEM leukemia): > 100 µM
TGI (IGROV1 ovarian): > 100 µM
TGI (SK-MEL-5 melanoma): > 100 µM
TGI (SK-OV-3 ovarian): > 100 µM
TGI (SNB-19 CNS): > 100 µM

C=C1CCC2C(C)(CO)C(O)CCC2(C)C1C/C=C1/CCOC1=O (centres undefined)
TGI (A498 renal): > 100 µM
TGI (CCRF-CEM leukemia): > 100 µM
TGI (HCC-2998 colon): > 100 µM
TGI (IGROV1 ovarian): > 100 µM
TGI (SK-MEL-5 melanoma): > 100 µM
TGI (SK-OV-3 ovarian): > 100 µM
TGI (SNB-19 CNS): > 100 µM

O=S1c2ccccc2NC(c2ccc3ccccc3c2)CC1c1ccccc1 (centres undefined)
TGI (CCRF-CEM leukemia): 38 µM
TGI (HCC-2998 colon): 36 µM
TGI (IGROV1 ovarian): 40.5 µM
TGI (SK-MEL-5 melanoma): 37.9 µM
TGI (SK-OV-3 ovarian): > 100 µM
TGI (SNB-19 CNS): > 100 µM

CN(C)CCNC(=O)c1c2ccccc2cc2ccccc12
TGI (A498 renal): > 100 µM
TGI (CCRF-CEM leukemia): > 100 µM
TGI (HCC-2998 colon): > 100 µM
TGI (IGROV1 ovarian): > 100 µM
TGI (SK-MEL-5 melanoma): 34.3 µM
TGI (SK-OV-3 ovarian): > 100 µM
TGI (SNB-19 CNS): > 100 µM

CC(C)C[CH2][Ge]([CH2]CC(C)C)([CH2]CC(C)C)[CH2]CC(C)C
GI50 (A498 renal): > 100 µM
TGI (A498 renal): > 100 µM
GI50 (CCRF-CEM leukemia): > 100 µM
TGI (CCRF-CEM leukemia): > 100 µM
GI50 (HS 578T breast): > 100 µM
TGI (HS 578T breast): > 100 µM
GI50 (IGROV1 ovarian): > 100 µM
TGI (IGROV1 ovarian): > 100 µM
GI50 (MDA-MB-231 breast): > 100 µM
TGI (MDA-MB-231 breast): > 100 µM
GI50 (MDA-MB-435): > 100 µM
TGI (MDA-MB-435): > 100 µM
GI50 (SK-MEL-5 melanoma): > 100 µM
TGI (SK-MEL-5 melanoma): > 100 µM
GI50 (SK-OV-3 ovarian): > 100 µM
TGI (SK-OV-3 ovarian): > 100 µM
GI50 (SNB-19 CNS): > 100 µM
TGI (SNB-19 CNS): > 100 µM

COc1ccc(N=Nc2c(-c3ccccc3)nn(C(=O)CC(=O)Nc3ccccc3Cl)c2-c2ccccc2)cc1
TGI (A498 renal): > 100 µM
TGI (CCRF-CEM leukemia): > 100 µM
TGI (HCC-2998 colon): > 100 µM
TGI (IGROV1 ovarian): > 100 µM
TGI (SK-MEL-5 melanoma): > 100 µM
TGI (SNB-19 CNS): > 100 µM

CN1C(=O)CCC1c1ccc2c(c1)oc(=O)n2C (centres undefined)
TGI (CCRF-CEM leukemia): > 100 µM
TGI (HCC-2998 colon): > 100 µM
TGI (IGROV1 ovarian): > 100 µM
TGI (SK-OV-3 ovarian): > 100 µM
TGI (SNB-19 CNS): > 100 µM

O=c1ccn(C2(CO)C=C(CO)C(O)C2O)c(=O)[nH]1 (centres undefined)
TGI (A498 renal): > 25.7 µM
TGI (HCC-2998 colon): > 25.7 µM
TGI (IGROV1 ovarian): > 25.7 µM
TGI (SK-MEL-5 melanoma): > 25.7 µM
TGI (SK-OV-3 ovarian): > 25.7 µM
TGI (SNB-19 CNS): > 25.7 µM

Cc1ccc(/C=C/C(=O)c2ccc([N+](=O)[O-])cc2)cc1
TGI (A498 renal): 19.1 µM
TGI (CCRF-CEM leukemia): > 100 µM
TGI (HCC-2998 colon): > 100 µM
TGI (IGROV1 ovarian): > 100 µM
TGI (SK-MEL-5 melanoma): > 100 µM
TGI (SK-OV-3 ovarian): > 100 µM
TGI (SNB-19 CNS): > 100 µM

ClC1c2ccccc2C2(c3ccccc3)OOC1(c1ccccc1)O2 (centres undefined)
TGI (A498 renal): 4.45 µM
TGI (HCC-2998 colon): 6.24 µM
TGI (SK-MEL-5 melanoma): 2.83 µM
TGI (SNB-19 CNS): 3.21 µM

CC(C)CN1CC(C)C(=O)NC1=O (centres undefined)
TGI (A498 renal): > 100 µM
TGI (CCRF-CEM leukemia): > 100 µM
TGI (SK-MEL-5 melanoma): > 100 µM
TGI (SK-OV-3 ovarian): > 100 µM
TGI (SNB-19 CNS): > 100 µM

N#Cc1cc([N+](=O)[O-])ccc1NC(=O)C(=O)C(C(=O)c1ccc2ccccc2c1)C1OCc2ccccc21 (centres undefined)
TGI (A498 renal): 20.6 µM
TGI (CCRF-CEM leukemia): 39.2 µM
TGI (HCC-2998 colon): 22.7 µM
TGI (IGROV1 ovarian): 61.6 µM
TGI (SK-MEL-5 melanoma): 24.8 µM
TGI (SK-OV-3 ovarian): > 100 µM
TGI (SNB-19 CNS): 21.1 µM

CN(C)C(=S)/N=c1\ss/c(=N\C(=S)N(C)C)n1Cc1ccco1
TGI (A498 renal): > 100 µM
TGI (CCRF-CEM leukemia): > 100 µM
TGI (HCC-2998 colon): > 100 µM
TGI (IGROV1 ovarian): > 100 µM
TGI (SK-MEL-5 melanoma): > 100 µM
TGI (SK-OV-3 ovarian): > 100 µM
TGI (SNB-19 CNS): > 100 µM

COc1cc2cnc(-c3ccccc3)cc2cc1OC
TGI (A498 renal): 21.2 µM
TGI (HS 578T breast): 53.8 µM
TGI (IGROV1 ovarian): 49.5 µM
TGI (MDA-MB-231 breast): 48.2 µM
TGI (MDA-MB-435): 67.3 µM
TGI (SK-MEL-5 melanoma): 27.7 µM
TGI (SK-OV-3 ovarian): > 100 µM
TGI (SNB-19 CNS): > 100 µM

COc1ccc(OC(C)C(=O)O)c2c1CCCC2=O (centres undefined)
TGI (A498 renal): > 100 µM
TGI (CCRF-CEM leukemia): > 100 µM
TGI (HCC-2998 colon): > 100 µM
TGI (IGROV1 ovarian): > 100 µM
TGI (SK-MEL-5 melanoma): > 100 µM
TGI (SK-OV-3 ovarian): > 100 µM
TGI (SNB-19 CNS): > 100 µM
